What was measured:
97 kinases = experiment: KINOMEscan scanEDGE, whole panel; type: binding; settings: 10 μM
Procedure: Compounds were screened at 10 μM using the DiscoverX KinomeSCAN™ assay. Results are reported as the % activity relative to the vehicle (i.e., DMSO) control, where lower values indicate higher affinity (see Table 1 for full scan data). The activity of HTW_A_8 fumarate at PIK3CG was minimal (33%) and barely met the threshold for inclusion. […] Data for harmine were obtained from a previous report.
Kinome Scan. Compound HTW_A_8 fumarate was screened against 97 kinases at a single concentration of 10 μM at Eurofins DiscoverX using their KINOMEscan™ scanEDGE assay. The results are reported as the % activity relative to DMSO control, where lower values indicate higher affinity. See Table 1 for the full kinome profile.

MEK1 = target: T1, MEK1 (Homo sapiens, UniProt Q02750); settings: 10 μM; cited from earlier work
T1 construct: purchased Eurofins DiscoverX (KINOMEscan scanEDGE service)

JNK2 = target: T2, JNK2 (Homo sapiens, UniProt P45984); settings: 10 μM; cited from earlier work
T2 construct: purchased Eurofins DiscoverX

MAP3K4 = target: T3, MAP3K4 (Homo sapiens, UniProt Q9Y6R4); settings: 10 μM; cited from earlier work
T3 construct: purchased Eurofins DiscoverX (KINOMEscan scanEDGE service)

p38-alpha = target: T4, p38-alpha (Homo sapiens, UniProt Q16539); settings: 10 μM; cited from earlier work
T4 construct: purchased Eurofins DiscoverX (KINOMEscan scanEDGE service)

CSNK1G2 = target: T5, CSNK1G2 (Homo sapiens, UniProt P78368); settings: 10 μM; cited from earlier work
T5 construct: purchased Eurofins DiscoverX

PLK3 = target: T6, PLK3 (Homo sapiens, UniProt Q9H4B4); settings: 10 μM; cited from earlier work
T6 construct: purchased Eurofins DiscoverX KINOMEscan scanEDGE

ABL1-phosphorylated = target: T7, ABL1-phosphorylated (Homo sapiens, UniProt P00519); settings: 10 μM; cited from earlier work
T7 construct: purchased Eurofins DiscoverX

RET = target: T8, RET (Homo sapiens, UniProt P07949); settings: 10 μM; cited from earlier work
T8 construct: purchased Eurofins DiscoverX KINOMEscan scanEDGE

CDK3 = target: T9, CDK3 (Homo sapiens, UniProt Q00526); settings: 10 μM; cited from earlier work
T9 construct: purchased Eurofins DiscoverX

EPHA2 = target: T10, EPHA2 (Homo sapiens, UniProt P29317); settings: 10 μM; cited from earlier work
T10 construct: purchased Eurofins DiscoverX

SRPK3 = target: T11, SRPK3 (Homo sapiens, UniProt Q9UPE1); settings: 10 μM; cited from earlier work
T11 construct: purchased Eurofins DiscoverX KINOMEscan scanEDGE

FAK = target: T12, FAK (Homo sapiens, UniProt Q05397); settings: 10 μM; cited from earlier work
T12 construct: purchased Eurofins DiscoverX

RAF1 = target: T13, RAF1 (Homo sapiens, UniProt P04049); settings: 10 μM; cited from earlier work
T13 construct: purchased Eurofins DiscoverX KINOMEscan scanEDGE

TGFBR1 = target: T14, TGFBR1 (Homo sapiens, UniProt P36897); settings: 10 μM; cited from earlier work
T14 construct: purchased Eurofins DiscoverX KINOMEscan scanEDGE

PIM3 = target: T15, PIM3 (Homo sapiens, UniProt Q86V86); settings: 10 μM; cited from earlier work
T15 construct: purchased Eurofins DiscoverX (KINOMEscan scanEDGE service)

FGFR2 = target: T16, FGFR2 (Homo sapiens, UniProt P21802); settings: 10 μM; cited from earlier work
T16 construct: purchased Eurofins DiscoverX

p38-beta = target: T17, p38-beta (Homo sapiens, UniProt Q15759); settings: 10 μM; cited from earlier work
T17 construct: purchased Eurofins DiscoverX (KINOMEscan scanEDGE service)

ABL1-nonphosphorylated = target: T18, ABL1-nonphosphorylated (Homo sapiens, UniProt P00519); settings: 10 μM; cited from earlier work
T18 construct: purchased Eurofins DiscoverX

EGFR = target: T19, EGFR (Homo sapiens, UniProt P00533); settings: 10 μM; cited from earlier work
T19 construct: purchased Eurofins DiscoverX

SRC = target: T20, SRC (Homo sapiens, UniProt P12931); settings: 10 μM; cited from earlier work
T20 construct: purchased Eurofins DiscoverX KINOMEscan scanEDGE

T13 sequence (P04049 whole entry): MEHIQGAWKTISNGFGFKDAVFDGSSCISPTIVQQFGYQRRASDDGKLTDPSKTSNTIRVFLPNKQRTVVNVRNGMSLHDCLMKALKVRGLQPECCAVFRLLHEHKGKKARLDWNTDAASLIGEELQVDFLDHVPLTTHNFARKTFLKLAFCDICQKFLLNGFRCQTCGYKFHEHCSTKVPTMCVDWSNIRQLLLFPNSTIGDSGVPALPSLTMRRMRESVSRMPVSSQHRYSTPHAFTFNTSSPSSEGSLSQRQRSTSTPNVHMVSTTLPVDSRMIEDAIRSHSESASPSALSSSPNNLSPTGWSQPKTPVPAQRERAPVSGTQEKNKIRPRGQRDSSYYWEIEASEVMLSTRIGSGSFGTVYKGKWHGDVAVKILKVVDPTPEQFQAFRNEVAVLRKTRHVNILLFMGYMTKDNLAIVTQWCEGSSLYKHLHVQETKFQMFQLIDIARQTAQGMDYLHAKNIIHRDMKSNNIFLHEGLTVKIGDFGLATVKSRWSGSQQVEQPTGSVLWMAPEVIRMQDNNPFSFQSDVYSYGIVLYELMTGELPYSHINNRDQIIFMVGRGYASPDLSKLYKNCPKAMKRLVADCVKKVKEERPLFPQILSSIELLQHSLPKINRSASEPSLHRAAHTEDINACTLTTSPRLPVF
T9 sequence (Q00526 whole entry): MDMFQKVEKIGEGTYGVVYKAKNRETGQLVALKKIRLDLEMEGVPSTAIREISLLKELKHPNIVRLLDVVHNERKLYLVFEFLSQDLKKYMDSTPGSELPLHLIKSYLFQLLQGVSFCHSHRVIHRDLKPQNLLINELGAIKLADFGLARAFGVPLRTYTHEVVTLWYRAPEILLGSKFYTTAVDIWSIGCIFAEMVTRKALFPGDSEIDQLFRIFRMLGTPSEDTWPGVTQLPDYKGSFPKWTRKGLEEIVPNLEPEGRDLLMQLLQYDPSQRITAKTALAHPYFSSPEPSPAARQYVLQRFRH
T8 sequence (P07949 29-1114): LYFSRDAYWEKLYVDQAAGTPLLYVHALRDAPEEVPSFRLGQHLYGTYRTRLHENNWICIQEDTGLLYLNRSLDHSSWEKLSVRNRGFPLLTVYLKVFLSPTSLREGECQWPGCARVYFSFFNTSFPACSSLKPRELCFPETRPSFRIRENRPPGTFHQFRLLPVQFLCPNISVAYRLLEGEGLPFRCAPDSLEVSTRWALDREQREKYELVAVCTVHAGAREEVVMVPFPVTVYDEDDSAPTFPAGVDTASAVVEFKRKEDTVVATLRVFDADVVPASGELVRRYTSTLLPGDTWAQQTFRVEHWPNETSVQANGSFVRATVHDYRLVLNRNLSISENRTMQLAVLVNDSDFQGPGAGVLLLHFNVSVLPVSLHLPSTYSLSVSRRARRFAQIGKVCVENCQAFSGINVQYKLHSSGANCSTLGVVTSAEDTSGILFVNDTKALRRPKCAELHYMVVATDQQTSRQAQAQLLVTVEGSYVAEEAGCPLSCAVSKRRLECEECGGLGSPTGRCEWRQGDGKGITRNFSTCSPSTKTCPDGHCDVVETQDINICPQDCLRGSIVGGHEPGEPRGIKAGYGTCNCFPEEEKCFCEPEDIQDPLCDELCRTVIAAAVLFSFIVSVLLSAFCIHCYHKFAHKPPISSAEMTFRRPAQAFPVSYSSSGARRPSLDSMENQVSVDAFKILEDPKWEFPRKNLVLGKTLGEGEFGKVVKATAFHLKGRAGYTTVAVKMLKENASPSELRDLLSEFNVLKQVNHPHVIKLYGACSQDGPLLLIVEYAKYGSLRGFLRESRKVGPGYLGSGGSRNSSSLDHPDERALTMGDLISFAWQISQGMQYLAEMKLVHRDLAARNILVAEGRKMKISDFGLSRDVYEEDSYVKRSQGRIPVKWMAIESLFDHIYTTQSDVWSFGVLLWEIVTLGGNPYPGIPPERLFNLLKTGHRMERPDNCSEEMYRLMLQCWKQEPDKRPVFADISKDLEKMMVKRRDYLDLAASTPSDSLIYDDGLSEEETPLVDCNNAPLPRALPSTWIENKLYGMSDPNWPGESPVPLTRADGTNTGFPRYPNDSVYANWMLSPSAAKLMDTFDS
T17 sequence (Q15759 whole entry): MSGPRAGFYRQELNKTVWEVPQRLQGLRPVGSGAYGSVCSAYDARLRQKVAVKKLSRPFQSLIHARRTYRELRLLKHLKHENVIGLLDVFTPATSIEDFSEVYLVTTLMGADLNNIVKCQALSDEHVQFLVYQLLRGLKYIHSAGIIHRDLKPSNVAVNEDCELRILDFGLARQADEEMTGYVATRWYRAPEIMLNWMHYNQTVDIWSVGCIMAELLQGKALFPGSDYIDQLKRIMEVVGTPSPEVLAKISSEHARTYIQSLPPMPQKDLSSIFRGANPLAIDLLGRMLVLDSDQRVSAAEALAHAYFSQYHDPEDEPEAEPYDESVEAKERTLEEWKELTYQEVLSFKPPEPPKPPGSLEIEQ
T14 sequence (P36897 34-503): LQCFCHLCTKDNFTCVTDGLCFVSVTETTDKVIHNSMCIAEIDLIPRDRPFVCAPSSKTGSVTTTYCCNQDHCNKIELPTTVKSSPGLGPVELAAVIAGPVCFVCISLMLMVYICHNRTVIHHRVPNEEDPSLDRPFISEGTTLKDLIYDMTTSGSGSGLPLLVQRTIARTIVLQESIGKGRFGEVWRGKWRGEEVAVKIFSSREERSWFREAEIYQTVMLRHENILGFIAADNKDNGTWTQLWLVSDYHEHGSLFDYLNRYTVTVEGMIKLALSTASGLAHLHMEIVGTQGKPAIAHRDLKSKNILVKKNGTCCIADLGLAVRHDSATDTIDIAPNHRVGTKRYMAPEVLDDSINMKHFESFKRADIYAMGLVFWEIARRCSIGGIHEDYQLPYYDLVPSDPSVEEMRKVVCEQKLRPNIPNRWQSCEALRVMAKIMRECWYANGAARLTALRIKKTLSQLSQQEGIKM
T11 sequence (Q9UPE1 whole entry): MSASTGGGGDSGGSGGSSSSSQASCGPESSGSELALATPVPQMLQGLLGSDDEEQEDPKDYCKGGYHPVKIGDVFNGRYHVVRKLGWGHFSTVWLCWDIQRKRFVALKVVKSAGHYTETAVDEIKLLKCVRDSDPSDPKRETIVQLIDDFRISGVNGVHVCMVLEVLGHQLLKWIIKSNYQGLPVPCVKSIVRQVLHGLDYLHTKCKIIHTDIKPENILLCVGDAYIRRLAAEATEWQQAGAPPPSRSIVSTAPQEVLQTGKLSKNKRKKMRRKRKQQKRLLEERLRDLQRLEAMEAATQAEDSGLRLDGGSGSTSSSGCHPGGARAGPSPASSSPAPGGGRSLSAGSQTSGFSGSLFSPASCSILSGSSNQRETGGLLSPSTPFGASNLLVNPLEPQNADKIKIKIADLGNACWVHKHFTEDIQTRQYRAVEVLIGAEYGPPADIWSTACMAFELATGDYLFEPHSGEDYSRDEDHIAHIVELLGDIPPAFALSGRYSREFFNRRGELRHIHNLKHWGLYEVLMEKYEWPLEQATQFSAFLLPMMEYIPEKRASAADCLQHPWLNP
T18 sequence (P00519 whole entry): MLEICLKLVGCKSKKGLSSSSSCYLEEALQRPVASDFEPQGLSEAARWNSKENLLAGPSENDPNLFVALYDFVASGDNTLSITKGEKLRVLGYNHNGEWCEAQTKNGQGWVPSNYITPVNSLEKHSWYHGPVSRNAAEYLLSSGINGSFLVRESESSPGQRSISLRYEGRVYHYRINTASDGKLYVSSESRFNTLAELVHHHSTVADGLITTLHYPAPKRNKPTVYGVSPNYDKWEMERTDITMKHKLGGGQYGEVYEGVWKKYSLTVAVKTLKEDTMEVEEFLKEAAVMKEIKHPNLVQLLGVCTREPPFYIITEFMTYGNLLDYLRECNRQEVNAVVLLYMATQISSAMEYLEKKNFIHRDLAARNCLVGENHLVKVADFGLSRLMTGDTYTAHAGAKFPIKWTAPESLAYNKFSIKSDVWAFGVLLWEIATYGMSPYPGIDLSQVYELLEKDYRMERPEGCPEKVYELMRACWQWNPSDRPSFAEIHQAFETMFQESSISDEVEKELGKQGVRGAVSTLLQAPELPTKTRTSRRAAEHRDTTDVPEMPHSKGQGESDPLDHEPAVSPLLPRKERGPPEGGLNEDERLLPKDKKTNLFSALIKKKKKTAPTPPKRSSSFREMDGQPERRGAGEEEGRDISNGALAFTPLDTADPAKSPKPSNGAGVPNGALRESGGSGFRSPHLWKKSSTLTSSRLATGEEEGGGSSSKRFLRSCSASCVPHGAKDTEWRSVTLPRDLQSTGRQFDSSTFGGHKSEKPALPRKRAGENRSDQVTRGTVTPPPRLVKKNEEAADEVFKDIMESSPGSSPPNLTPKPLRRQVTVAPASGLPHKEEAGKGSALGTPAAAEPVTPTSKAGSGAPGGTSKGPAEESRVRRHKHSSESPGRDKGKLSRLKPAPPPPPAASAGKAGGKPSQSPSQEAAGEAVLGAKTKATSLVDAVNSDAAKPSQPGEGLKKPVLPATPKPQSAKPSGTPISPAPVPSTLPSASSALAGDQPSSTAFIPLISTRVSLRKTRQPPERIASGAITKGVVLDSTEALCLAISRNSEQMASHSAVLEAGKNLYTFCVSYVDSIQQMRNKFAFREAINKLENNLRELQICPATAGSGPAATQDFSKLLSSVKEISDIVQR
T7 sequence (P00519 whole entry): as above

**Q.** With `COc1ccc2c3ccnc(C)c3n(CCN(C)C)c2c1.O=C(O)/C=C/C(=O)O` [HTW_A_8 fumarate, 2-(7-methoxy-1-methyl-9H-pyrido[3,4-b]indol-9-yl)-N,N-dimethylethan-1-amine Fumarate Salt (2:3)] as the molecule, how does the “activity at other kinases of the LIPID family (besides PIK3CG)” value (97 kinases) read?
**A.** did not exhibit activity for any other kinase in the LIPID family

**Q.** What about the kinase family selectivity (97 kinases; 97 kinases) of the same molecule?
**A.** selective for kinases in the CMGC family

**Q.** Which “Percent Control” value (MEK1) does the source give for `COc1ccc2c(c1)[nH]c1c(C)nccc12` [Harmine, harmine] here?
**A.** 79%

**Q.** And the “Percent Control” value (JNK2)?
**A.** 58%

**Q.** And the “Percent Control” value (MAP3K4)?
**A.** 93%

**Q.** And the “Percent Control” value (p38-alpha)?
**A.** 95%

**Q.** And the “Percent Control” value (CSNK1G2)?
**A.** 19%

**Q.** And the “Percent Control” value (PLK3)?
**A.** 75%

**Q.** And the “Percent Control” value (ABL1-phosphorylated)?
**A.** 100%

**Q.** What about the “Percent Control” value (RET) of the same molecule?
**A.** 91%

**Q.** And the “Percent Control” value (CDK3)?
**A.** 100%

**Q.** And the “Percent Control” value (EPHA2)?
**A.** 93%

**Q.** What about the “Percent Control” value (SRPK3) of the same molecule?
**A.** 84%

**Q.** And the “Percent Control” value (FAK)?
**A.** 100%

**Q.** What about the “Percent Control” value (RAF1) of the same molecule?
**A.** 89%

**Q.** What about the “Percent Control” value (TGFBR1) of the same molecule?
**A.** 91%

**Q.** And the “Percent Control” value (PIM3)?
**A.** 43%

**Q.** And the “Percent Control” value (FGFR2)?
**A.** 91%

**Q.** What about the “Percent Control” value (p38-beta) of the same molecule?
**A.** 85%

**Q.** And the “Percent Control” value (ABL1-nonphosphorylated)?
**A.** 90%

**Q.** And the “Percent Control” value (EGFR)?
**A.** 96%

**Q.** What about the “Percent Control” value (SRC) of the same molecule?
**A.** 90%
